Data reported in patent publication US20250263439A1, “HETERODIMERIC PEPTIDE REAGENTS AND METHODS” (REGENTS OF THE UNIVERSITY OF MICHIGAN, priority 2018, published 2025).
Where “and” joins values, the source holds several entries; their conditions need not be identical. Equal values may be shown once. Entries after “also recorded” stand apart in the source; their conditions may differ. One block for each molecule: values may come before it. Bridge positions count the residues as written; N and C are the ends. Square brackets hold non-standard residues; d marks the D form. Ends that are not written are not given here. Peptide text beside a SMILES is read from it. I, II: the chains in the order shown. * marks the point of attachment. X1 = CC1(C)C(=CC=C2CCCC(C=CC3=[N+](CCCCCC(=O)NCCN4C(=O)CC(*)C4=O)c4ccc(S(=O)(=O)O)cc4C3(C)C)=C2Oc2ccc(S(=O)(=O)O)cc2)N(CCCCS(=O)(=O)[O-])c2ccc(S(=O)(=O)O)cc21; AEEEA = NCCOCCOCCOCC(=O)O

Columns and labels:
[1] = FL intensity in serum of tumor bearing mice over 48 hours; type: in vivo; details: mouse, 45 nmol
Method: FIG. 19A) White light and FIG. 19B) FL images (λex=800 nm) are shown of heterodimer distribution in major organs at 2 hours post-injection. FIG. 19C) Mean (±SD) fluorescence intensity for heterodimer and control peptide was shown from n=6 mice each. […] FIG. 19D) FL intensity from serum of tumor bearing mice injected with heterodimer (300 μM, 150 μL PBS, n=6) is shown over 48 hours. Blood prior to heterodimer injection is shown as control.
(§1) Tumor-bearing mice were sacrificed at 2 hours post-injection of heterodimer or control peptide.

[2] = system: OE33 human xenograft tumor; assay: Immunofluorescence of OE33 xenograft tumor sections ex vivo
Method: Immunofluorescence was performed to validate target expression in sections of OE33 human xenograft tumor ex vivo.

[3] = system: human OE33 xenograft tumors; assay: Biodistribution of IRDye800 heterodimer in major organs; design: species or system mice; details: mouse, in vivo
Method: as §1

[4] = system: human OE33 xenograft tumors; assay: In vivo fluorescence (FL) imaging of OE33 xenograft tumors (IRDye800); design: species or system mice; details: for Fluorescence T/B ratio, mean (±SD): 2 hours post-injection, n=6 mice
Method: (§2) FL and PA images were collected following systemic administration of QRH*-KSP*-E3-IRDye800 and (GGGAGGG (SEQ ID NO: 28))2-E3-IRDye800 (control) in human OE33 xenograft tumors to characterize pharmacokinetics. […] The mean intensity for either modality regressed to baseline at ˜24 hours post-injection.

SKBr3 cells = assay: Confocal cell surface binding of IRDye800 heterodimer to cell panel; type: cell-based, human
Method: Confocal microscopy was performed to validate specific heterodimer binding. […] AF568-labeled anti-EGFR and AF488-labeled anti-HER2 antibodies were used as positive controls to confirm EGFR and HER2 expression by the cell panel. Heterodimer and antibody binding to the surface (arrows) of SKBr3 cells co-localize, and a Pearson's coefficient of ρ=0.58 and 0.65 was measured for EGFR and HER2, respectively, on merged images, FIG. 23A-F.

[5] = system: human OE33 xenograft tumors; assay: In vivo photoacoustic (PA) imaging of OE33 xenograft tumors (IRDye800); design: species or system mice; details: for Photoacoustic T/B ratio, mean: 2 hours post-injection
Method: as §2
Dual-modal images were collected at 2 hours following heterodimer injection to assess imaging depth. […] An ultrasound image confirmed tumor structure, FIG. 20D.

[6] = system: OE19, OE21, OE33 and SKBr3 cancer cells; assay: Cytotoxicity of IRDye800 heterodimer in panel of human cancer cells; type: cell-based; details: 48 hours, concentrations up to 500 μg/mL
[7] = system: EGFR and ErbB2 mediated signaling; assay: Effect on downstream cell signaling in SKBr3 cells (Western blot); type: cell-based, human
Method: The effect of heterodimer binding on downstream signaling was evaluated in SKBr3 cells. SKBr3 cells were seeded in 6-well flat-bottom plates. […] EGF (#E9644, Sigma) was reconstituted to 1 mg/mL using 10 mM acetic acid, diluted with 0.1% BSA, and added to SKBr3 cells at a concentration of 100 ng/mL. Lapatinib (CDS022971, Sigma) was diluted to 100 nM in DMSO and PBS from 1 mg/mL stock solution, and was added to the cells incubated with heterodimer at concentrations of 1, 5, and 20 μM in separate wells.

[8] = Marshall et al.; cited from earlier work
OE33 cells [9] = assay: Apparent association time constant by flow cytometry with OE33 cells; type: binding, human; details: for apparent association time constant Ka: flow cytometry, 1 μM, 4° C.; for apparent association time constant (time): value in brackets after Ka
Method: The apparent association time constant (Ka) was measured to assess binding kinetics to OE33 cells. OE33 cells were grown to about 80% confluence in 10 cm dishes, and cells were then detached with PBS-based cell dissociation buffer (Invitrogen). About 10^5 cells were incubated with 1 μM of the heterodimer at 4° C. for different time periods ranging from […]. The cells were centrifuged, washed with cold PBS, and fixed with 4% PFA. Flow cytometry was performed, and the median fluorescence intensity (y) was ratioed with that of OE33 cells without addition of peptide at time points (t) using Flowjo software. The rate constant K was calculated by fitting the data to the first-order kinetics model, y(t)=Imax[1−exp^(−kt)], where Imax=maximum value, using Prism 5.0 software.

OE33 cells [10] = assay: Apparent dissociation constant by flow cytometry with OE33 cells; type: binding, human; details: flow cytometry, 4° C.
Method: The apparent dissociation constant (Kd) was measured to assess binding affinity of the heterodimer to OE33 cells. The heterodimer was serially diluted in PBS at concentrations of about 0, 10, 25, 50, 100, and 200 nM with about […] at 4° C. for one hour and washed with cold PBS. The mean fluorescence intensities were measured with flow cytometry (BD LSRII, BD Biosciences). The equilibrium dissociation constant Kd 1/Ka was calculated with a least-squares fit of the data to the nonlinear equation I=(I0+ImaxKa[X])/(I0+Ka[X]). I0 and Imax are the initial and maximum fluorescence intensities, corresponding to no peptide and at saturation, respectively, and [X] represents the concentration of bound peptide. Prism 5.0 software (Graphpad Inc.) was used to calculate Kd and Ka.

Flo1-HER2 cells = assay: Confocal binding of FITC-labeled candidate peptides to Flo1-HER2 cells; type: cell-based; details: FITC label, among five leading candidates
Method: A FITC label was attached to each peptide, and binding to Flo1-HER2 and QhTERT cells (control) was imaged using confocal microscopy. […] From the model, this peptide was determined to bind to HER2 domain 3. The peptide was then labeled for deep tissue imaging with a Cy5.5 fluorophore via a GGGSK (SEQ ID NO: 3) linker on the C-terminus, hereafter KSP*-Cy5.5. Cy5.5 was chosen for high quantum yield and photostability. The linker prevents steric hindrance by spatially separating the fluorophore from the peptide. A scrambled sequence PPSNFKR (SEQ ID NO: 4) was developed for use as control by altering the conformationally rigid spacer PNP and moving both hydrophobic and hydrophilic amino acids at the C-terminus. This control peptide also was linked to Cy5.5 via GGGSK (SEQ ID NO: 3), hereafter PPS*-Cy5.5. […] The fluorescence emission peak occurs at 708 nm in the NIR spectrum.

half-life [1]: ~180 min
tumor uptake (biodistribution) [3]: high tumor uptake
time of peak FL T/B ratio / intensity post-injection ([4]; intravenous): 2 h
time of regression of FL intensity to baseline / clearance ([4]; post-injection): ~24 h
time of peak PA T/B ratio / intensity post-injection ([5]; intravenous): 2 h
time of regression of PA intensity to baseline / clearance ([5]; post-injection): ~24 h
Molecule: CC1(C)C(=CC=C2CCCC(C=CC3=[N+](CCCCCC(=O)NCCN4C(=O)CC(SC[C@H](NC(=O)[C@H](CCCCNC(=O)COCCOCCOCCNC(=O)[C@H](CCC(=O)O)NC(=O)[C@H](CCCNC(=N)N)NC(=O)[C@@H]5CCCN5C(=O)[C@H](CCCCN)NC(=O)[C@H](Cc5c[nH]cn5)NC(=O)[C@H](CCCNC(=N)N)NC(=O)[C@@H](N)CCC(N)=O)NC(=O)COCCOCCOCCNC(=O)[C@H](Cc5ccccc5)NC(=O)[C@H](CCCNC(=N)N)NC(=O)[C@@H]5CCCN5C(=O)[C@H](CC(N)=O)NC(=O)[C@@H]5CCCN5C(=O)[C@H](CO)NC(=O)[C@@H](N)CCCCN)C(N)=O)C4=O)c4ccc(S(=O)(=O)O)cc4C3(C)C)=C2Oc2ccc(S(=O)(=O)O)cc2)N(CCCCS(=O)(=O)[O-])c2ccc(S(=O)(=O)O)cc21 (stereo partly drawn) [QRH*-KSP*-E3-IRDye800] (I: H-KSPNPRF[AEEEA]KC(X1)-NH2 / II: H-QRHKPRE[AEEEA]; amide I:9-II:C)
T/B ratio ([2]; OE33 xenograft tumor sections, 3 boxes of 20×20 μm2): 5.0±0.8
binding to surface of OE33 xenograft tumor cells ([2]; immunofluorescence of sections): strong binding
Fluorescence T/B ratio, mean (±SD) [4]: 3.89±0.94
mean FL T/B ratio versus control peptide or PBS ([4]; mouse, in vivo): significantly greater
binding to surface of SKBr3 cells (SKBr3 cells; confocal microscopy): Strong fluorescence intensity; also recorded: Strong binding
mean fluorescence intensity SKBr3 versus OE21, OE19, and QhTERT cells (SKBr3 cells; paired t-test): significantly greater
Photoacoustic T/B ratio, mean [5]: 2.44±0.36
mean PA T/B ratio versus control peptide or PBS ([5]; mouse, in vivo): significantly greater
cytotoxicity [6]: Negligible cytotoxicity; also recorded: No cytotoxicity

Molecule: CS(=O)(=O)CCNCc1ccc(-c2ccc3ncnc(Nc4ccc(OCc5cccc(F)c5)c(Cl)c4)c3c2)o1 [lapatinib, reference compound]
expression of phosphorylated EGFR / ErbB2 / AKT / ERK ([7]; 100 nM lapatinib): reduced expression

Molecule: (GGGAGGG)2-E3-IRDye800: control peptide for the IRDye800 heterodimer (also: dimer via E3 linker, IRDye800 label) [reference compound]
Fluorescence T/B ratio, mean (±SD) [4]: 3.89±0.94
Photoacoustic T/B ratio, mean [5]: 1.44±0.21

Molecule: EGF (NSDSECPLSHDGYCLHDGVCMYIEALDKYACNCVVGYIGERCQYRDLKWWELR; Epidermal growth factor; UniProt P01133 971-1023, looked up) [an endogenous ligand for EGFR, positive control, reference compound]
p-AKT and p-ERK ([7]; EGF 100 ng/mL, positive control): strong phosphorylation activity; also recorded: increased expression

Molecule: IRDye800
safety in animals [8]: safe

Molecule: KSP*-GGGSK-Cy5.5 (KSPNPRFGGGSK-NH2; also: Cy5.5 label on C-terminal Lys side chain) [KSP*-Cy5.5]
apparent association time constant Ka (OE33 cells [9]): 0.35 min⁻¹
apparent association time constant (time) (OE33 cells [9]): 2.8 min and 2.9 min
Kd (OE33 cells [10]): 54 nM

Molecule: KSPNPRF (also: FITC label)
mean fluorescence intensity with binding to Flo1-HER2 (Flo1-HER2 cells): highest mean fluorescence intensity

Molecule: QRH*-GGGSK-Cy5.5 (QRHKPREGGGSK-NH2; also: Cy5.5 label on C-terminal Lys side chain) [QRH*-Cy5.5]
apparent association time constant Ka (OE33 cells [9]): 0.21 min⁻¹
apparent association time constant (time) (OE33 cells [9]): 4.7 min and 4.8 min
Kd (OE33 cells [10]): 98 nM
